In assay [1] the target is T1, GABAAR β3 homopentamer (GABAAR-β3cryst) (Homo sapiens, UniProt P28472, DEL333-446/INS332SQPARAA).
T1 sequence (P28472 with tags, fused parts or gaps INS332SQPARAA): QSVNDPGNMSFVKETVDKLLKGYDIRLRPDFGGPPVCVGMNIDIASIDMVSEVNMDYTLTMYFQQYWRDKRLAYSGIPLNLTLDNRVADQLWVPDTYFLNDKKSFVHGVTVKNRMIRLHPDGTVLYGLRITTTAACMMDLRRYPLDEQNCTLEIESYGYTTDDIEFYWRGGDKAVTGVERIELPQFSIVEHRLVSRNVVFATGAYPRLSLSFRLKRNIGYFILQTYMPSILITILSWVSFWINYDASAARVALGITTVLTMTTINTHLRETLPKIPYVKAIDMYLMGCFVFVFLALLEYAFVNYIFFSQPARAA
T1 sequence (P28472 447-473): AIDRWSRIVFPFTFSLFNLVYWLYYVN
In words: thermostabilisation of purified receptor. Type of assay: binding.

Assay [2] concerns the target T1, GABAAR β3 homopentamer (GABAAR-β3cryst). The assay can be described thus: thermostabilisation of purified receptor. Type of assay: binding. The source holds these as a separate data set.
For assay [3] the target is unchanged. The assay can be described thus: X-ray co-crystal structure. In kind it is cell-based.

The structures appear in SMILES notation.

In turn, `NCCc1c[nH]cn1` [histamine] yielded an EC50 in assay [1] of 400 ± 150 µM.
Turning to `N#Cc1nn(-c2c(Cl)cc(C(F)(F)F)cc2Cl)c(N)c1[S+]([O-])C(F)(F)F` (stereo not drawn) [fipronil], in assay [2], the EC50 was determined as 0.026 ± 0.005 µM.
Take `N=C(N)c1ccccc1` [benzamidine]: the EC50 in assay [3] is 61 ± 12 µM.

Usually EC50 stands for the concentration that produces a half-maximal response. The low end stands for an effect from little substance, the high end for a need for much substance.
